Legend:
[1] = log P determination by HPLC on reverse phase column, pH 2.3; assay type: physicochemical; conditions: reverse phase HPLC column (C 18), reverse phase column (C 18), pH 2.3, 43° C.
Method: The determination of the log P values given in the above table and preparation examples is carried out in accordance with EEC directive 79/831 Annex V.A8 by HPLC (High Performance Liquid Chromatography) on a reverse phase column (C 18). Temperature: 43° C. The determination is carried out under acidic conditions at pH 2.3 with 0.1% aqueous phosphoric acid and acetonitrile as eluents; linear gradient of 10% acetonitrile to 95% acetonitrile. Calibration was is carried out with unbranched alkan-2-ones (with 3 to 16 carbon atoms) of known log P values (Determination of log P values by the retention times by linear interpolation between two sequential alkanones).

[2] = system: green peach aphid (Myzus persicae); assay: Myzus test (spray treatment); assay type: in vivo; conditions: for pest or weed control at 100 g/ha: Myzus persicae, in Brassica oleracea, 120 h, spray treatment, China cabbage slices, after 5 d, read-out: Death rate in % after 5d; for activity in Myzus test (spray treatment): statement in words
Method: [table] For the preparation of a suitable active compound formulation 1 part by weight of the active compound is mixed with the above amounts of solvent and emulsifier and the concentrate is diluted to the desired concentration with water containing emulsifier. China cabbage slices (Brassica pekinensis) that are infected with all stages of the green peach aphid (Myzus persicae) are sprayed with an active compound preparation at the desired concentration. After the desired time the activity in % is determined. Here 100% means that all aphids were killed; 0% means that no aphids were killed.

[3] = system: larvae of the mustard leaf beetle (Phaedon cochleariae); assay: Phaedon test (spray treatment); assay type: in vivo; conditions: for activity in Phaedon test (spray treatment): statement in words
Method: (§1) [table] For the preparation of a suitable active compound formulation 1 part by weight of the active compound is mixed with the above amounts of solvent and emulsifier and the concentrate is diluted to the desired concentration with water containing emulsifier. China cabbage slices (Brassica pekinensis) are sprayed with an active compound preparation of the desired composition and after drying infected with larvae of the mustard leaf beetle (Phaedon cochleariae). After the desired time the activity in % is determined. Here 100% means that all beetle larvae were killed; 0% means that no beetle larvae were killed.

[4] = system: caterpillars of the fall army worm (Spodoptera frugiperda); assay: Spodoptera frugiperda test (spray treatment); assay type: in vivo; conditions: for pest or weed control at 4 g/ha: Spodoptera frugiperda, 168 h, spray treatment, maize leaf sections, after 7 d, read-out: Death rate in % after 7d; for activity in Spodoptera frugiperda test (spray treatment): statement in words
Method: as §1, with “Maize leaf sections (Zea mays)” for “China cabbage slices (Brassica pekinensis)”, “concentration” for “composition”, “caterpillars” for “larvae”, “fall army worm (Spodoptera frugiperda).” for “mustard leaf beetle (Phaedon cochleariae).”, “caterpillars” for “beetle larvae”

[5] = system: caterpillars of the beet army worm (Spodoptera exigua); assay: Spodoptera exigua test (resistant strain); assay type: in vivo; conditions: for Death rate in % after 7d: resistant strain, cabbage leaves dipped; for activity in Spodoptera exigua test (resistant strain): statement in words
Method: [table] For the preparation of a suitable active compound formulation 1 part by weight of the active compound is mixed with the above amounts of solvent and emulsifier and the concentrate is diluted to the desired concentration with water containing emulsifier. Cabbage leaves (Brassica oleracea) are treated by dipping in the active compound preparation at the desired concentration and infected with caterpillars of the beet army worm (Spodoptera exigua) while the leaves are still moist. After the desired time the death rate in % is determined. Here 100% means that all caterpillars were killed; 0% means that no caterpillars were killed.

[6] = system: green peach aphid (Myzus persicae); assay: Myzus persicae test; hydroponic treatment; assay type: in vivo; conditions: for Death rate in % after 6d: 20 ppm in water, hydroponic treatment, pea plant; for activity in Myzus persicae test; hydroponic treatment: statement in words
Method: [table] For the preparation of a suitable active compound formulation 1 part by weight of the active compound is mixed with the above amounts of solvent and emulsifier and the concentrate is diluted to the desired concentration with water. The active compound preparation is mixed with water. The concentration given refers to the amount of active compound per unit volume of water (mg/l=ppm). The treated water is placed in a vessel with a pea plant (Pisum sativum) which is then infection with the green peach aphid (Myzus persicae) is carried out. After the desired time the death rate in % is determined. Here 100% means that all aphids were killed, 0% means that no aphids were killed.

[7] = system: two-spotted spider mite (Tetranychus urticae); assay: Tetranychus Test OP resistant; assay type: in vivo
Method: [table] For the preparation of a suitable active compound formulation 1 part by weight of the active compound is mixed with the above amounts of solvent and emulsifier and the concentrate is diluted to the desired concentration with water containing emulsifier. Bean leaf slices (Phaseolus vulgaris) that are infested by all stages of the two-spotted spider mite (Tetranychus urticae) are sprayed with an active substance preparation at the desired concentration. After the desired time the action in % is determined. Here 100% means that all spider mites were killed; 0% means that no spider mites were killed.

[8] = system: caterpillars of the diamond back moth (Plutella xylostella); assay: Plutella test; assay type: in vivo
Method: [table] For the preparation of a suitable active compound formulation 1 part by weight of the active compound is mixed with the above amounts of solvent and emulsifier and the concentrate is diluted to the desired concentration with water containing emulsifier. Cabbage leaves (Brassica oleracea) are treated by dipping into the active compound preparation of the desired concentration and infected with caterpillars of the diamond back moth (Plutella xylostella) while the leaves were still wet. After the desired time the death rate is determined as %. Here 100% means that all caterpillars were killed; 0% means no caterpillars were killed.

[9] = system: caterpillars of the cotton boll worm (Heliothis armigera); assay: Heliothis armigera test; assay type: in vivo
Method: [table] For the preparation of a suitable active compound formulation 1 part by weight of the active compound is mixed with the above amounts of solvent and emulsifier and the concentrate is diluted to the desired concentration with water containing emulsifier. Soy bean leaves (Glycine max.) are treated by dipping into the active compound preparation at the desired concentration and infected with the caterpillars of the cotton boll worm (Heliothis armigera), while the leaves are still wet. After the desired time the death rate in % is determined. Here 100% means that all caterpillars were killed; 0% means that no caterpillars were killed.

[10] = log P determination with LC-MS under acidic conditions, pH 2.7; assay type: physicochemical; conditions: reverse phase HPLC column (C 18)
Method: The determination of the log P values given in the above table and preparation examples is carried out in accordance with EEC directive 79/831 Annex V.A8 by HPLC (High Performance Liquid Chromatography) on a reverse phase column (C 18). Temperature: 43° C. The determination with LC-MS under acidic conditions is carried out at pH 2.7 with 0.1% aqueous formic acid and acetonitrile (contains 01% formic acid) as eluents; linear gradient from 10% acetonitrile to 95% acetonitrile. Calibration was is carried out with unbranched alkan-2-ones (with 3 to 16 carbon atoms) of known log P values (Determination of log P values by the retention times by linear interpolation between two sequential alkanones).

[11] = Phaedon cochleariae, 168 h, spray treatment, China cabbage slices, after 7 d, read-out: Death rate in % after 7d

| chromatographic logP [1] | Compound | pest or weed control at 100 g/ha [2] | activity in Myzus test (spray treatment) [2] | activity in Phaedon test (spray treatment) [3] | pest or weed control at 4 g/ha [4] | activity in Spodoptera frugiperda test (spray treatment) [4] | also measured |
| --- | --- | --- | --- | --- | --- | --- | --- |
| 2.69 | Cc1nc(Cn2nc(C(F)(F)F)cc2C(F)(F)F)ccc1NC(=O)c1cccc(Cl)c1C(=O)N[C@@H](C)CS(C)(=O)=O [Example 9] | 100% | good activity | good activity | 100% | good activity | pest or weed control at 100 g/ha ([3]; Phaedon cochleariae, 168 h, 100 g/ha, spray treatment, China cabbage slices, after 7 d, read-out: Death rate in % after 7d): 100%; Death rate in % after 7d ([5]; 0.8 ppm): 80%; activity in Spodoptera exigua test (resistant strain) [5]: good activity |
| 2.27 | Cc1nc(Cn2nc(C(F)(F)F)cc2C(F)(F)F)ncc1NC(=O)c1cccc(I)c1C(=O)N[C@@H](C)C[S+](C)[O-] (stereo partly drawn) [Example 24] | 100% | good activity | – | 83% | good activity | Death rate in % after 6d [6]: 95%; activity in Myzus persicae test; hydroponic treatment [6]: good activity |
| 2.54 | Cc1nc(Cn2nc(C(F)(F)F)nc2C(F)(F)F)ncc1NC(=O)c1cccc(I)c1C(=O)N[C@@H](C)CS(C)(=O)=O [Example 41] | 90% | good activity | – | – | – | Death rate in % after 6d [6]: 95%; activity in Myzus persicae test; hydroponic treatment [6]: good activity |
| 4.11 | CSC[C@H](C)NC(=O)c1c(Cl)cccc1C(=O)Nc1cnc(Cn2cc(C(F)(F)C(F)(F)F)c(C(F)(F)C(F)(F)F)n2)nc1C [Example 64] | 100% | good activity | good activity | 100% | good activity | pest or weed control at 4 g/ha [3, 11]: 100%; Death rate in % after 5d ([7]; 100 g/ha, OP resistant, bean leaf slices sprayed, after 5 d): 100%; activity in Tetranychus Test OP resistant ([7]; statement in words): good activity |
| 3.29 | Cc1nc(Cn2cc(C(F)(F)C(F)(F)F)c(C(F)(F)C(F)(F)F)n2)ncc1NC(=O)c1cccc(Cl)c1C(=O)N[C@@H](C)CS(C)(=O)=O [Example 66] | 100% | good activity | good activity | 100% | good activity | pest or weed control at 4 g/ha [3, 11]: 100%; Death rate in % after 7d ([8]; 0.8 ppm, cabbage leaves dipped, after 7 d): 100%; activity in Plutella test ([8]; statement in words): good activity; Death rate in % after 7d ([5]; 4 ppm): 100%; activity in Spodoptera exigua test (resistant strain) [5]: good activity; Death rate in % after 7d ([9]; 0.8 ppm, soy bean leaves dipped, after 7 d): 80%; activity in Heliothis armigera test ([9]; statement in words): good activity |
| – | Cc1nc(Cn2nc(C(F)(F)F)cc2C(F)(F)F)ccc1[N+](=O)[O-] [IV-1, 6-{[3,5-bis(trifluoromethyl)-1H-pyrazol-1-yl]methyl}-2-methyl-3-nitropyridine] | – | – | – | – | – | chromatographic logP [10]: 3.8 |
| – | Cc1nc(CBr)ccc1[N+](=O)[O-] [VII-1, 6-(bromomethyl)-2-methyl-3-nitropyridine] | – | – | – | – | – | chromatographic logP [10]: 2.2 |
